Assays:
[1] = target: T1, Cytochrome P450 1A2 (Homo sapiens, UniProt P05177); assay: Time-dependent inhibition of CYP1A2 in human liver microsomes using phenacetin as substrate in absence of NADPH regenerating system by UPLC-MS analysis; assay type: ADME
T1 sequence (P05177 whole entry): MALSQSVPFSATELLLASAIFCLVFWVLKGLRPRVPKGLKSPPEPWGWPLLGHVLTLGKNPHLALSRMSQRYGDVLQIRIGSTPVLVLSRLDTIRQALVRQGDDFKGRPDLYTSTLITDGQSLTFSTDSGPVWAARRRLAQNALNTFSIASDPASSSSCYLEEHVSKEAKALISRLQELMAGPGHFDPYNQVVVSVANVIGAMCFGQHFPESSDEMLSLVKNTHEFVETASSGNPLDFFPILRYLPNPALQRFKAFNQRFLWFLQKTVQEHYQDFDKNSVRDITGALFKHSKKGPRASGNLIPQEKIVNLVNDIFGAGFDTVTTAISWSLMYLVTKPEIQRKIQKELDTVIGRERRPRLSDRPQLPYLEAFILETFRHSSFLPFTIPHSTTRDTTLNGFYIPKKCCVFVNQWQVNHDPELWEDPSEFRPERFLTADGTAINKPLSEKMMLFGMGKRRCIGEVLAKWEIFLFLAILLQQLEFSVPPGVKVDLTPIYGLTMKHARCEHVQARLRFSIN

[2] = Oral bioavailability in Swiss mouse at 50 mg/kg dosed via gavage measured up to 24 hrs by UPLC-MS analysis; assay type: ADME, organism-based; conditions: in vivo
[3] = target: Albumin (Homo sapiens, UniProt P02768); assay: Binding affinity to albumin (unknown origin) by chromatographic method; assay type: ADME; conditions: albumin, read-out: PB (converted)
Sequence of Albumin (P02768 whole entry): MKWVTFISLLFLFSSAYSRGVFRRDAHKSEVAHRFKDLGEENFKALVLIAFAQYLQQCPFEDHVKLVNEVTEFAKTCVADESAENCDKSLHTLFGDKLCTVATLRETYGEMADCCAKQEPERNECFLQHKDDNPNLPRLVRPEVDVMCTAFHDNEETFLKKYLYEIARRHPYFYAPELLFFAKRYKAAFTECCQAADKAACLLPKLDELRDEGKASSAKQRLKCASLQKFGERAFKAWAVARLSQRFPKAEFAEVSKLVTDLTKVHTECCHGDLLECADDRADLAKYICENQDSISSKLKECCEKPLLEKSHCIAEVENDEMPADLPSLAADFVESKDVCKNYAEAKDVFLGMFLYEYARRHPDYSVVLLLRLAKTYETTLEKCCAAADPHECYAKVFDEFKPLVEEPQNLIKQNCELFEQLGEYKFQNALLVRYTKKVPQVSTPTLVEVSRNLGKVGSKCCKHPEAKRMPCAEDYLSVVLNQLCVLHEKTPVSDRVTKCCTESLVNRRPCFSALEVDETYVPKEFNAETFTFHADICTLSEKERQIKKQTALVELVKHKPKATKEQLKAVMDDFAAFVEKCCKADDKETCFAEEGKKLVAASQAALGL

[4] = target: Cytochrome P450 2C9 (Homo sapiens, UniProt P11712); assay: Time-dependent inhibition of CYP2C9 in human liver microsomes using tolbutamide as substrate in presence of NADPH regenerating system by UPLC-MS analysis; assay type: ADME
Sequence of Cytochrome P450 2C9 (P11712 whole entry): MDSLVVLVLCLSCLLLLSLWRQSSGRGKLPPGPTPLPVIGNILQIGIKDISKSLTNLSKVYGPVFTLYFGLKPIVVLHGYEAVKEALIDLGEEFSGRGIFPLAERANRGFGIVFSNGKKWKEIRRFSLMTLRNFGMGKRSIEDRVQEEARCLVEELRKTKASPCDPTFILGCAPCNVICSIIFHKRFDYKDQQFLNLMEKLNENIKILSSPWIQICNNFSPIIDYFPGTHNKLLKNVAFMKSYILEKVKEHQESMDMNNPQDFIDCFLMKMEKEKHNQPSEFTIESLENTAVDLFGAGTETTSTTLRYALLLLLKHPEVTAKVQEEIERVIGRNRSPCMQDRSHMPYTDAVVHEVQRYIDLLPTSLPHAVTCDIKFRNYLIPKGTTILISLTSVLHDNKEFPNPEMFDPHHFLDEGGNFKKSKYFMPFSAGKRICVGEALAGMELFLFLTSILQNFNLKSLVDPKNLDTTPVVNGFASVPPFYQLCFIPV

[5] = test system: Plasmodium falciparum; assay: animal or person; conditions: 3D70087/N9, in Mus musculus, po, 96 h

Cc1c(Cc2ccc(C(F)(F)F)nc2)c[nH]c1C(=O)NC1CC1
TDI [1]: Not Active
F [2]: > 100%
fraction unbound [3]: 0.238
TDI [4]: Not Active
ED90 [5]: 50 mg/kg/day

Reference: ChEMBL document CHEMBL4602703, “Lead Optimization of a Pyrrole-Based Dihydroorotate Dehydrogenase Inhibitor Series for the Treatment of Malaria” (J Med Chem, 2020)
